Measurements taken from publication PMC5192239 (Data in Brief, 2016).

Tests used:
[1] = biological target: T1, Pseudomonas aeruginosa PMM/PGM (PaPMM) (Pseudomonas aeruginosa, UniProt P26276); experiment: product formation in coupled G6PDH assay; ESI-MS dephosphorylation of catalytic serine ([…]); format: biochemical
T1 construct: gene algC

[2] = biological target: T1, Pseudomonas aeruginosa PMM/PGM (PaPMM); experiment: coupled G6PDH enzyme assay, noncompetitive inhibition fit; also ESI-MS dephosphorylation of active site serine; format: biochemical
[3] = biological target: T1, Pseudomonas aeruginosa PMM/PGM (PaPMM); experiment: coupled G6PDH enzyme assay, competitive inhibition fit (text prints Ki in μM; Fig. […] legend prints mM); format: biochemical
[4] = biological target: T2, human phosphoglucomutase 1 (hPGM1) (Homo sapiens, UniProt P36871); experiment: ESI-MS of intact purified protein:[…] phosphorylation of active site serine after incubation; format: biochemical
T2 construct: gene PGM1
T2 sequence (P36871 1-562): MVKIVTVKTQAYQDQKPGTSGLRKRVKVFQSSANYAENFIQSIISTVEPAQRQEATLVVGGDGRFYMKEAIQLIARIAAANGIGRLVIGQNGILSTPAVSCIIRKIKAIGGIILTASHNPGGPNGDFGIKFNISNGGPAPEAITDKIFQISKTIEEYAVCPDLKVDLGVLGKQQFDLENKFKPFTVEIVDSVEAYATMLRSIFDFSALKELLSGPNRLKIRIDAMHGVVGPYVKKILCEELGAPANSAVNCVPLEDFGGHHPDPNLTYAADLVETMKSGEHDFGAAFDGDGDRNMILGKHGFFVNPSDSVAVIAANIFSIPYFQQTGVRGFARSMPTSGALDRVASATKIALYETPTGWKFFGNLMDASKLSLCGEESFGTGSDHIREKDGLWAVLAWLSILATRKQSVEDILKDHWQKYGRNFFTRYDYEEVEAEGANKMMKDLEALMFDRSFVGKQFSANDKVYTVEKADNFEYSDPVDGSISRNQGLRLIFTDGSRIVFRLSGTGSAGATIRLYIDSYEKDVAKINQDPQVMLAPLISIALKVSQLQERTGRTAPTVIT

[5] = test system: O=P(O)(O)O[C@H]1O[C@H](CO)[C@@H](O)[C@H](O)[C@H]1O; experiment: purified protein

T1 sequence (P26276 2-463): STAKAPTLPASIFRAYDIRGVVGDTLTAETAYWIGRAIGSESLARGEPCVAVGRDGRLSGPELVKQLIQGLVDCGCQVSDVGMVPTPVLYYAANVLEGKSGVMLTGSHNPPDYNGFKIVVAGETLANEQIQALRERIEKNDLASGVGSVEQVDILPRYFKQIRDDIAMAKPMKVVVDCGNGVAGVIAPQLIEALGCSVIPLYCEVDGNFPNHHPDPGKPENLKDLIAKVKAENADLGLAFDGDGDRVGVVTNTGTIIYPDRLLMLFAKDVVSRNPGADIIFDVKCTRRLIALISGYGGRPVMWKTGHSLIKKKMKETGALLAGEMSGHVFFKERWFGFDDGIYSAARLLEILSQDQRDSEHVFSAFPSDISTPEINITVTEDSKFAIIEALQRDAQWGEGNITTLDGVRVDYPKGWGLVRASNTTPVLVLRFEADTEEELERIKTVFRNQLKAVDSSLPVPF

O=C[C@H](O)[C@@H](O)[C@H](O)[C@H](O)COP(=O)(O)O [G6P, glucose 6-phosphate]
product formation in coupled G6PDH assay; ESI-MS dephosphorylation of catalytic [1]: Enzymatic activity of PaPMM was quantified by measuring the formation of glucose 6-phosphate (G6P)

N[C@H]1C(OP(=O)(O)O)O[C@H](CO)[C@@H](O)[C@@H]1O (some centres unmarked) [GlcN1P, glucosamine 1-phosphate]
Ki [2]: 307 ± 29 µM

O=P(O)(O)O[C@H]1OC[C@@H](O)[C@H](O)[C@H]1O [X1P, xylose 1-phosphate]
Ki [3]: 8.6 ± 0.3 µM

O=C(COP(=O)(O)O)[C@@H](O)[C@H](O)[C@H](O)COP(=O)(O)O [F16P, fructose 1,6-bisphosphate]
ESI-MS of intact purified protein: 92% phosphorylation of active site serine aft [4]: Treatment of hPGM1 with F16P was done herein

Pseudomonas aeruginosa PMM/PGM (PaPMM) (Pseudomonas aeruginosa PAO1)
Km [5]: 28 ± 2.8 µM
